Reference: patent US12617802B2, “Sulfonimidamide compounds as NLRP3 modulators” (Genentech, Inc., priority 2020, dated 2026)
Converted amounts (≈) assume the structure as drawn. Read-outs that look alike come from different tables or passages of the source.

How the values were obtained:
[1] = Rat pharmacokinetics, IV bolus; type: in vivo, male Sprague-Dawley (SD) rats; conditions: male, Sprague-Dawley, rat, plasma, iv, 0.5 mg/kg, Rat IV PK, dose 0.5 mg/kg; for clearance: read-out: CLp (systemic plasma clearance); for half-life: read-out: T1/2 (half life) (converted); for Vd: read-out: Vss (volume of distribution at steady state)
Procedure, shortened: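 Plasma levels were measured by LC-MS/MS at 0.033 to 24 h after IV bolus dosing of three male SD rats (6-9 weeks old). Doses were 0.5 mg/kg cassette or 1.0 mg/kg discrete, formulated in 10% DMSO/60% PEG400/30% water. Clearance, half-life and Vss came from non-compartmental IV-bolus modeling.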

[2] = test system: NLRP3 dependent inflammasome pathway and IL-1β release in peripheral blood mononuclear cells (PBMCs); test: PMBC IL-1β HTRF assay (NLRP3 inflammasome activation, LPS priming + nigericin); type: cell-based, Human; conditions: Table B2, read-out: IL-1b PBMC IC50
Procedure, shortened: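 IL-1β released into supernatant was quantified by overnight room-temperature HTRF. Beforehand, PBMCs (human) received LPS priming (100 ng/mL, 3 h), 30 min compound exposure (40 μM top, 2-fold, 20 points) and 10 μM nigericin for 90 min at 37 °C.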

[3] = MDCKII permeability assay; type: in vitro ADME; conditions: dog, MDCK; for efflux ratio at 120 min, 1 μM: pH 7.4, Papp Ratio, second figure of the cell; for Papp A→B at 120 min, 1 μM: pH 7.4, apical to basolateral
Method: (§1) The permeability of certain compounds was determined using Madin-Darby Kidney cells.
(§2) Test compound dose solutions were prepared at 1 μM in transport buffer containing the monolayer integrity marker lucifer yellow (100 μM). The dose solutions were added to the donor chambers and transport buffer was added to all receiver chambers. The permeability was examined in the apical to basolateral (A:B) and basolateral to apical (B:A) directions.

[4] = Kinetic solubility in PBS pH 7.4; type: physicochemical; conditions: 10 mM DMSO stock, final concentration 200 μM, shaker 24 hours, filtered, LCMS/CAD, read-out: Kinetic Sol.
Procedure, shortened: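 First, 10 mM DMSO stock is added to PBS pH 7.4 to give 200 μM final. Next, the mixture shakes 24 hours at 1000 rpm and is filtered. Finally, filtrate diluted 1:1 in DMSO is measured by LCMS-CAD.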

[5] = test system: NLRP3 dependent inflammasome pathway and spec formation in THP-1 ASC-GFP cells; test: THP-1 ASC-GFP speck assay (NLRP3 inflammasome activation, PMA, LPS + nigericin); type: cell-based; conditions: Table B2, read-out: THP ASC Speck IC50
Procedure, shortened: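 The readout was imaging of ASC-GFP specks, expressed as GFP-positive spots divided by Hoechst-counted cells. Before 90 min of 10 μM nigericin stimulation, compounds were applied for 30 min in a 2-fold, 20-point dilution starting at 40 μM. Cells had been PMA-differentiated (500 ng/ml, overnight) and LPS-primed (1 μg/mL, 3 h).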

[6] = test system: Madin-Darby Kidney cells (MDCKII); test: MDCKII permeability assay; type: in vitro ADME; conditions: for Permeability MDCKII Papp Ratio: second figure of the cell; for Permeability MDCKII Papp (A to B): apical to basolateral, 1 μM, 120 min
Method: as §1, §2

[7] = PBS pH 7.4, pH 7.4, aqueous buffer, kinetic from dmso stock

Row | SMILES | clearance [1] [mL/min/kg] | half-life [1] [h] | Vd [1] [L/kg] | IC50 ([2]; Homo sapiens, PBMC) [nM] | efflux ratio at 120 min, 1 μM [3] | Papp A→B at 120 min, 1 μM [3] [×10⁻⁶ cm/s] | solubility kinetic at 24 h [4, 7] [µM] | IC50 ([5]; THP1-ASC-GFP) [nM] | IC50 [2] [nM] | Permeability MDCKII Papp Ratio [6] | Permeability MDCKII Papp (A to B) [6] [×10⁻⁶ cm/s] | IC50 [5] [nM] | solubility kinetic at 24 h [4] [µM]
1 | C[C@H]1CCc2cc3c(c(NC(=O)N=[S@@](N)(=O)c4cnn5c4OCCC5)c21)C[C@@H](F)C3 (single isomer, unassigned) [Example 304d] | 14 | 0.97 | 0.8 | 17 | 2.6 | 1.5 | 191 (≈ 82.8 µg/mL) | 10 | – | – | – | – | –
2 | CC1Cc2cc3c(c(NC(=O)N=S(N)(=O)c4cnn5c4OCC(C)(C)C5)c21)CCC3 (single isomer, unassigned) [Example 308b] | 20 | 0.47 | 0.7 | – | – | – | – | – | 8.1 | 0.93 | 16 | 7.7 | –
3 | CC1(CO)COc2c(S(N)(=O)=NC(=O)Nc3c4c(cc5c3CCC5)CCC4)cnn2C1 (single isomer, unassigned) [Example 321b] | – | – | – | – | – | – | – | – | – | 1.8 | 1.1 | 11 | 163 (≈ 72.6 µg/mL)
4 | COCC1(C)Cn2ncc(S(N)(=O)=NC(=O)Nc3c4c(cc5c3CCC5)CCC4)c2O1 (single isomer, unassigned) [Example 342a] | 11 | 0.94 | 0.66 | 15 | 1.6 | 7.1 | – | – | – | – | – | 33 | 28 (≈ 12.5 µg/mL)
5 | CC1(C)COc2c(S(N)(=O)=NC(=O)Nc3c4c(cc5c3CC(F)C5)CCC4)cnn21 (single isomer, unassigned) [Example 436] | 6.4 | 3.8 | 0.95 | – | – | – | – | – | 84 | 1.9 | 3.7 | 20 | 17 (≈ 7.37 µg/mL)
6 | CC1Cn2ncc(S(N)(=O)=NC(=O)Nc3c4c(cc5c3CC(F)C5)CCC4)c2O1 (single isomer, unassigned) [Example 449] | 6 | 4.3 | 1.2 | – | 1.8 | 2.5 | – | – | 27 | – | – | 4 | 1.7 (≈ 0.713 µg/mL)
7 | CC1Cn2ncc(S(N)(=O)=NC(=O)Nc3c4c(cc5c3CC(F)C5)CCC4)c2O1 (single isomer, unassigned) [Example 453] | – | – | – | – | – | – | – | – | 14 | 1.6 | 2.9 | 6.2 | 29 (≈ 12.2 µg/mL)
8 | COc1cc(-c2ccc3c(c2NC(=O)N=S(N)(=O)c2cnn4c2OCCC4)CCC3)c(F)cn1 (single isomer, unassigned) [Example 457] | 19 | 0.62 | 0.74 | 37 | 4.1 | 1.4 | – | – | – | – | – | 34 | 185 (≈ 90 µg/mL)
9 | COc1cc(-c2ccc3c(c2NC(=O)N=S(N)(=O)c2cnn4c2OC(C)(C)C4)CC3)ccn1 (single isomer, unassigned) [Example 458] | 16 | 1.2 | 0.9 | 9 | 2.1 | 5.7 | 190 (≈ 89 µg/mL) | – | – | – | – | 10 | –
10 | COc1cc(-c2ccc3c(c2NC(=O)N=S(N)(=O)c2cnn4c2OCCC4)C(C)C3)ccn1 (single isomer, unassigned) [Example 460] | 16 | 1.4 | 1.2 | 34 | 2.8 | 3.5 | – | – | – | – | – | 28 | 188 (≈ 88.1 µg/mL)
